# Measurements: US20050215543A1, “Methods of treating HIV infection” (priority 2004, published 2005)
# Test system: HIV-1 LAI
# Assay: microbe, parasite or virus in culture
# Details: for EC50: Human immunodeficiency virus 1, MT2, 120 h; for Combination Indices at % HIV Inhibition (Confidence Interval) 50%: 50% HIV inhibition; for Combination Indices at % HIV Inhibition (Confidence Interval) 50% / Combination Indices at % HIV Inhibition (Confidence Interval) 75% / Combination Indices at % HIV Inhibition (Confidence Interval) 90%: 95% CI in parenthesis; for Combination Indices at % HIV Inhibition (Confidence Interval) 75%: 75% HIV inhibition; for Combination Indices at % HIV Inhibition (Confidence Interval) 90%: 90% HIV inhibition; for Overall Result: two-drug combination with Compound 1, all ratios and effect levels, MT-2/HIV-1 LAI, RT assay
# Description: Virus and cell lines. The T-cell lines, MT-2 and PM-1 were obtained through the AIDS Research and Reference Reagent Program, NIAID, and were contributed by Dr. D. Richman and Dr. R. Gallo, respectively. Both cell lines were cultured in RPMI 1640 medium supplemented with 10% fetal bovine serum, 2 mM L-glutamine and sub-cultured twice a week. The LAI strain of HIV-1 was obtained from the Fred Hutchinson Cancer Research Center, and the Bal strain was from NIH. Both virus stocks were amplified and titered in MT-2 cells (LAI) and PM-1 cells (Bal) using a virus infectivity assay.
# Drug Susceptibility and Cytotoxicity Assays. For drug susceptibility assays, MT-2 cells were infected with HIV-1 LAI (or PM-1 cells with HIV-1 Bal) at an MOI of 0.005, and seeded into 96-well microtiter plates (0.1×10^6 cells/ml) containing serial dilutions of test compounds. […] Each drug ratio consisted of an array of 3-fold serial dilutions, and was performed in quadruplicate. The plates were incubated at 37° C./5% CO2. The MT-2 cells infected with HIV-1 LAI were incubated for 5 days. On day-five post-infection, 20 μl from each well was harvested and quantitated by a reverse transcriptase (RT) assay, or in samples involving non-nucleoside RT inhibitors, an MTS assay. The PM-1 cells infected with HIV-1 Bal and used for studying the combinations with CCR5 inhibitors were incubated for six days. On day-six post-infection, 20 μl from each well was harvested, 20- and 50-fold diluted and quantitated by p24 assay. Cytotoxicity assays were performed using uninfected cells, exposed to the same drug combinations, and incubated for six days. Cell viability was determined by an XTT assay. The CC50 values were calculated by using the exponential form of the median effect equation as mentioned below for calculation of EC50.
# Analysis of Drug Combination Effects. For determination of CI values, drugs were diluted in a fixed ratio and multiple ratios were analyzed. The drug serial dilutions spanned a range of concentrations near the EC50 value of each compound, so that equivalent antiviral activities could be compared. Concentration-response curves were estimated for each individual drug and every combination using the median-effect equation. The equation was fit using a nonlinear regression routine (Proc Nlin) in PC SAS version 8.01 (SAS Institute Inc., SAS Version 8.01, Cary, N.C.: SAS Institute Inc., 1990).
# In this equation, Fa stands for “fraction affected,” and represents the fraction of the viral load that has been inactivated. […] ED50 is drug concentration that is expected to reduce the amount of virus by 50%, and m is a parameter that reflects the slope of the concentration-response curve.
# To assess antiviral effects of different drug combination treatments, combination indices (CIs) were calculated according to Chou and Rideout. The combination index was computed as CI=[D]1/[Dm]1+[D]2/[Dm]2
# In this equation [Dm]1 and [Dm]2 are the concentrations of drugs that would individually produce a specific level of effect, while [D]1 and [D]2 are the concentrations of drugs in combination that would produce the same level of effect.
# Theoretically, additivity is implied if the CI is equal to one, synergy if the CI is less than one, and antagonism if the CI is greater than one. […] At best, we can construct a range that contains the likely values for the CI, given the noise in the data. In this report, these ranges are reported in parentheses next to each point estimate of the CI. […] If the range fell entirely above 1.0, we would infer antagonistic behavior. If the range were to include 1.0, we would infer additivity.
# In carrying out the combination experiments below, the EC50 for Compound 1 and each comparator compound was determined during the course of each study, and used in the subsequent data analysis.
# [1] = combination with Compound 1, EC50 ratio 1:1 (Compound 1:comparator)
# [2] = combination with Compound 1, EC50 ratio 1:1
# [3] = combination with Compound 1, EC50 ratio 1:2.5
# [4] = combination with Compound 1, EC50 ratio 2.5:1
SMILES,EC50 [nM],Combination Indices at % HIV Inhibition (Confidence Interval) 50% [1],Combination Indices at % HIV Inhibition (Confidence Interval) 75% [2],Combination Indices at % HIV Inhibition (Confidence Interval) 90% [2],Combination Indices at % HIV Inhibition (Confidence Interval) 50% [3],Combination Indices at % HIV Inhibition (Confidence Interval) 75% [3],Combination Indices at % HIV Inhibition (Confidence Interval) 90% [3],Combination Indices at % HIV Inhibition (Confidence Interval) 50% [4],Combination Indices at % HIV Inhibition (Confidence Interval) 75% [4],Combination Indices at % HIV Inhibition (Confidence Interval) 90% [4],Overall Result,Overall Result (listed as indinavir),Overall Result (listed as amprenavir),Overall Result (listed as emtricitabine),Overall Result (listed as nelfinavir),Overall Result (listed as stavudine)
"CC(C)CN(C[C@@H](O)[C@H](Cc1ccccc1)NC(=O)O[C@H]1CCOC1)S(=O)(=O)c1ccc(N)cc1 [Amprenavir, amprenavir]",21,"0.89 (0.73, 1.06)","0.93 (0.68, 1.17)","0.96 (0.57, 1.36)","1.30 (0.84, 1.76)","1.08 (0.55, 1.62)","0.90 (0.20, 1.60)","0.41 (0.34, 0.48)","0.32 (0.25, 0.40)","0.25 (0.16, 0.35)",Additive-,,additive to synergistic,,,
"O=c1[nH]cnc2c1ncn2[C@H]1CC[C@@H](CO)O1 [Didanosine, didanosine]",1800,"1.29 (1.18, 1.40)","0.69 (0.60, 0.78)","0.37 (0.29, 0.44)","0.53 (0.46, 0.60)","0.32 (0.26, 0.38)","0.19 (0.13, 0.25)","0.95 (0.74, 1.17)","0.69 (0.48, 0.90)","0.50 (0.26, 0.74)",,,,,,
CC[C@H](C)[C@H](NC(=O)[C@H](CCC(N)=O)NC(=O)[C@H](C)NC(=O)[C@H](CCC(N)=O)NC(=O)[C@H](CCC(=O)O)NC(=O)[C@H](CC(C)C)NC(=O)[C@H](CC(C)C)NC(=O)[C@H](C)NC(=O)[C@@H](NC(=O)[C@@H](NC(=O)[C@H](CCCCN)NC(=O)[C@H](CCC(N)=O)NC(=O)[C@H](CCC(=O)O)NC(=O)[C@H](Cc1c[nH]c2ccccc12)NC(=O)[C@H](CCC(=O)O)NC(=O)[C@H](CCC(N)=O)NC(=O)[C@H](Cc1c[nH]c2ccccc12)NC(C)=O)[C@@H](C)CC)[C@@H](C)O)C(=O)N[C@@H](CCC(N)=O)C(=O)N[C@@H](CCC(N)=O)C(=O)N[C@@H](CCC(=O)O)C(=O)N[C@@H](CCCCN)C(=O)N[C@@H](CC(N)=O)C(=O)N[C@@H](CCC(=O)O)C(=O)N[C@@H](Cc1ccc(O)cc1)C(=O)N[C@@H](CCC(=O)O)C(=O)N[C@@H](CC(C)C)C(=O)N[C@@H](CCC(N)=O)C(=O)N[C@@H](CCCCN)C(=O)N[C@@H](CC(C)C)C(=O)N[C@@H](CC(=O)O)C(=O)N[C@@H](CCCCN)C(=O)N[C@@H](Cc1c[nH]c2ccccc12)C(=O)N[C@@H](C)C(=O)N[C@@H](CO)C(=O)N[C@@H](CC(C)C)C(=O)N[C@@H](Cc1c[nH]c2ccccc12)C(=O)N[C@@H](CCC(=O)O)C(=O)N[C@@H](Cc1c[nH]c2ccccc12)C(=O)N[C@@H](Cc1ccccc1)C(N)=O [Compound T-1249],,"0.25 (0.20, 0.30)","0.14 (0.10, 0.19)","0.08 (0.04, 0.12)",0.32 (0.28 0.35),"0.17 (0.14, 0.19)","0.09 (0.06, 0.11)","0.19 (0.17, 0.22)","0.14 (0.12, 0.16)","0.10 (0.08, 0.13)",,,,,,
"Cc1cn([C@H]2C=C[C@@H](CO)O2)c(=O)[nH]c1=O [Stavudine, stavudine]",250,"1.47 (1.16, 1.79)","0.60 (0.42, 0.78)","0.25 (0.13, 0.38)","0.50 (0.37, 0.64)","0.29 (0.18, 0.40)","0.18 (0.07, 0.28)","0.69 (0.47, 0.91)","0.55 (0.30, 0.80)","0.45 (0.12, 0.78)",Additive-,,,,,additive-synergistic

# The next lines start with results.
EC50 [nM],SMILES,Combination Indices at % HIV Inhibition (Confidence Interval) 50% [1],Combination Indices at % HIV Inhibition (Confidence Interval) 75% [2],Combination Indices at % HIV Inhibition (Confidence Interval) 90% [2],Combination Indices at % HIV Inhibition (Confidence Interval) 50% [3],Combination Indices at % HIV Inhibition (Confidence Interval) 75% [3],Combination Indices at % HIV Inhibition (Confidence Interval) 90% [3],Combination Indices at % HIV Inhibition (Confidence Interval) 50% [4],Combination Indices at % HIV Inhibition (Confidence Interval) 75% [4],Combination Indices at % HIV Inhibition (Confidence Interval) 90% [4],Overall Result,Overall Result (listed as indinavir),Overall Result (listed as amprenavir),Overall Result (listed as emtricitabine),Overall Result (listed as nelfinavir),Overall Result (listed as stavudine)
0.7,"CC(C)(C)NC(=O)[C@@H]1CN(Cc2cccnc2)CCN1C[C@@H](O)C[C@@H](Cc1ccccc1)C(=O)N[C@H]1c2ccccc2C[C@H]1O [Indinavir, indinavir]","0.55 (0.46, 0.64)","0.57 (0.45, 0.70)","0.61 (0.39, 0.83)","0.35 (0.24, 0.47)","0.21 (0.17, 0.24)","0.32 (0.20, 0.43)","0.31 (0.22, 0.40)","0.41 (0.27, 0.55)","0.54 (0.20, 0.87)",Synergistic,strong synergistic effects,,,,
34,"Nc1nc(=O)n([C@@H]2CS[C@H](CO)O2)cc1F [Emtricitabine, emtricitabine]","0.57 (0.49, 0.64)","0.33 (0.27, 0.39)","0.19 (0.14, 0.24)","0.38 (0.31, 0.45)","0.48 (0.36, 0.60)","0.60 (0.36, 0.84)","0.17 (0.15, 0.19)","0.21 (0.17, 0.25)","0.26 (0.18, 0.34)",Synergistic,,,consistent synergy at all effective levels and concentration ratios,,
22,"Cc1c(O)cccc1C(=O)N[C@@H](CSc1ccccc1)[C@H](O)CN1C[C@H]2CCCC[C@H]2C[C@H]1C(=O)NC(C)(C)C [Nelfinavir, nelfinavir]","0.66 (0.60, 0.73)","0.78 (0.67, 0.88)","0.91 (0.71, 1.10)","0.29 (0.31, 0.46)","0.62 (0.45, 0.79)","0.99 (0.57, 1.41)","0.77 (0.69, 0.86)","0.69 (0.62, 0.77)","0.62 (0.49, 0.75)",Moderate,,,,moderate synergy,
